In brackets after ≈: the same amount, converted by molar mass. Read-outs that look alike come from different tables or passages of the source.
Legend:
Stachybotrys chartarum [1] = test: Fungus resistance test after painting over fungal growth (defacement rating); assay type: cell-based; conditions: painted over fungal growth, +100 μg/mL in Olympic Home paint
Source text: (§1) In this series of experiments, fungal growth was allowed to cover a painted surface (surface containing 2 coats of the unaltered paint) to a defacement rating of 3-5, forming a ‘contaminated surface’. […] The paint application was extended approximately 1-2 cm beyond the edge of the disc onto the NSA medium. Each formulation used a separate brush to avoid cross contamination. The re-painted discs were placed back into the humid environment with elevated temperature to encourage fungal growth.
(§2) This test was used to evaluate the ability of paint films containing antifungal additives to prevent the re-emergence of fungal growth after painting over existing growth.
(§3) Olympic® Home interior flat latex paint (PPG Industries, Pittsburgh, Pa.) and Valspar® QuikHide White flat interior paint (Valspar Corporation, Minneapolis, Minn.) were used for the experiments in this study unless specified. Stock solutions of the antifungal additives of interest were prepared in reagent grade dimethyl sulfoxide (DMSO; Alfa Aesar, Ward Hill, Mass.). Additives were spiked (by adding appropriate amounts of the antifungal stock solutions) into the liquid paint at specified concentrations. Samples of additive-spiked paint were vigorously mixed with a vortex mixer for at least one minute to insure uniform dispersion of the additive in the paint. […] Studies that used other brands of paint followed the same protocol as described for those using the Olympic® Home interior flat latex paint.
(§4) Test surfaces were prepared in triplicate. In most cases, the tested conditions were repeated on a different date, again in triplicate. […] Two coats of paint were applied with a polyester brush to completely cover both faces of the filter paper disc, allowing at least four hours drying time between coats.
(§5) Nutrient-Salts Agar (NSA) media was prepared according to ASTM method G21-13 in 100×15 mm sterile polystyrene petri dishes (VWR® Radnor, Pa.) with a solidified agar layer from 3 to 6 mm (⅛ to ¼ in.) in depth. The agar was allowed to solidify for at least 24 hours before being used. The painted test filter paper discs were placed in the center of the agar plates in a biosafety hood while wearing clean nitrile gloves.
(§6) The paint coatings were evaluated against three representative fungi: Stachybotrys chartarum, Penicillium chrysogenum, and Alternaria alternata. […] Fungal isolates of Alternaria alternata and Penicillium chrysogenum were obtained from the Plant Pathology and Environmental Microbiology Department at Penn State University.
(§7) A spore suspension of each of these fungi was prepared by pouring a 20-mL portion of autoclaved deionized water containing 0.01% Tween® 20 onto a subculture of each fungal species. Spores were counted with the use of a hemocytometer (Hausser Scientific, Horsham, Pa.) under a microscope. Spore suspensions of Stachybotrys chartarum and Penicillium chrysogenum were diluted to 1×10^6 spores/mL with autoclaved deionized water. Spore suspensions of Alternaria alternata were used “as is” in the range of 200,000 to 400,000 spores/mL.
(§8) Painted test surfaces were inoculated with a spray bottle or with a cotton-tipped applicator. To inoculate the sample with a spray bottle, the spore suspension was sprayed twice on the painted test discs with a spray bottle that delivered approximately 0.14 g of fluid per spray. To inoculate the sample with a cotton-tipped applicator, an autoclaved cotton-tipped applicator was submerged in approximately 400 μL of the inoculum solution and applied evenly over the surface of the painted test surface twice.

Alternaria alternata [2] = test: as above; assay type: cell-based; conditions: painted over fungal growth
Source text: as §1, §2, §3, §4, §5, §6, §7, §8

Penicillium chrysogenum [3] = test: as above; assay type: cell-based; conditions: painted over fungal growth, +200 μg/mL in Valspar QuikHide paint
Source text: as §1, §2, §3, §4, §5, §6, §7, §8

[4] = commercially available fungicidal agents; cited from earlier work
Fusarium oxysparum ST-33 = test: 3 day MIC, broth microdilution in 25% PDB; assay type: cell-based; conditions: ST33, 72 h
Outline: (§9)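 Spores counted by hemocytometer, diluted to 0.4-1×10^5 CFU/mL final; DMSO 0.5-2% v/v final; ~25° C; growth read 48 h and 72 h; modified CLSI M38-A2 protocol.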

Mucor spp. = test: 3 day MIC, broth microdilution in 25% PDB; assay type: cell-based; conditions: 72 h
Outline: as §9

Rhizopus spp. = test: 3 day MIC, broth microdilution in 25% PDB; assay type: cell-based; conditions: 72 h
Outline: as §9

Aspergillus niger = test: 3 day MIC, broth microdilution in 25% PDB; assay type: cell-based; conditions: 72 h
Outline: as §9

Aureobasidium pullulans = test: 3 day MIC, broth microdilution in 25% PDB; assay type: cell-based; conditions: 72 h
Outline: as §9

Aspergillus flavus = test: 3 day MIC, broth microdilution in 25% PDB; assay type: cell-based; conditions: 72 h
Outline: as §9

Stachybotrys chartarum [5] = test: 3 day MIC, broth microdilution in 25% PDB; assay type: cell-based; conditions: for MIC: 72 h, read-out: 3 day MIC
Procedure: (§10) Stock solutions (concentrations of between 4,000 μg/mL to 10,000 μg/mL; stored at −18° C.) of the above antifungals were prepared in dimethyl sulfoxide (DMSO). The stock solutions were further diluted into sterile 25% potato dextrose broth (PDB) so that the diluted solutions could be used for the antifungal susceptibility studies. This way, a typical microdilution study would reach a final ratio of about 0.5-2% v/v of DMSO in 25% PDB.
(§11) Spore inocula were prepared in sterile distilled water with 0.1% Tween® 20 (a polysorbate surfactant), and a hemocytometer was used to determine the spore density. Typically, the spore inoculum was prepared fresh prior to each study, and the inoculum was appropriately diluted to a final concentration of 0.4-1×10^5 spores/mL or colony-forming unit (CFU)/mL in each study. The spore suspension can be stored in a refrigerator at 4° C. for up to one week.
(§12) The studies were performed in flat bottom, 96-well microtiter plates (Greiner Bio-One, Frickenhausen, Germany).
(§13) Plates sealed with clear polyester film (VWR, Radnor, Pa.) were incubated at a temperature of about 25° C. The progress of fungal growth was monitored at 48 hours and 72 hours.

Alternaria alternata [6] = test: 3 day MIC, broth microdilution in 25% PDB; assay type: cell-based; conditions: for MIC: 72 h, read-out: 3 day MIC
Procedure: as §10, §11, §12, §13

Penicillium corylophilum = test: 3 day MIC, broth microdilution in 25% PDB; assay type: cell-based; conditions: for MIC: 72 h, read-out: 3 day MIC
Procedure: as §10, §11, §12, §13

[7] = system: Penicillium brevicompactum; test: 3 day MIC, broth microdilution in 25% PDB; assay type: cell-based; conditions: for MIC: 72 h, read-out: 3 day MIC
Procedure: as §10, §11, §12, §13

Penicillium purpurogenum = test: 3 day MIC, broth microdilution in 25% PDB; assay type: cell-based; conditions: for MIC: 72 h, read-out: 3 day MIC
Procedure: as §10, §11, §12, §13

Penicillium chrysogenum [8] = test: 3 day MIC, broth microdilution in 25% PDB; assay type: cell-based; conditions: for MIC: 72 h, read-out: 3 day MIC
Procedure: as §10, §11, §12, §13

[9] = system: Cladosporium cladosporioides; test: 3 day MIC, broth microdilution in 25% PDB; assay type: cell-based; conditions: 72 h
Outline: as §9

[10] = +100 μg/mL in Olympic Home paint, 7 days
[11] = +100 μg/mL in Olympic Home paint, 14 days
[12] = +100 μg/mL in Olympic Home paint, 21 days
[13] = Penicillium purpurogenum, 25% PDB

SMILES	Average defacement rating ± standard deviation (Stachybotrys chartarum [1]; 7 days)	Average defacement rating ± standard deviation (Stachybotrys chartarum [1]; 14 days)	Average defacement rating ± standard deviation (Stachybotrys chartarum [1]; 21 days)	Average defacement rating ± standard deviation (Alternaria alternata [2]; [10])	Average defacement rating ± standard deviation (Alternaria alternata [2]; [11])	Average defacement rating ± standard deviation (Alternaria alternata [2]; [12])	Average defacement rating ± standard deviation (Penicillium chrysogenum [3]; 7 days)	Average defacement rating ± standard deviation (Penicillium chrysogenum [3]; 14 days)	Average defacement rating ± standard deviation (Penicillium chrysogenum [3]; 21 days)	Solubility in water [4]	MIC (Mucor spp.)	MIC (Rhizopus spp.)	MIC (Aspergillus niger)	MIC (Aspergillus flavus)	MIC (Stachybotrys chartarum [5]; 25% PDB)	MIC (Alternaria alternata [6]; 25% PDB)	MIC (Penicillium corylophilum; 25% PDB)	MIC ([7]; 25% PDB)	MIC (Penicillium purpurogenum; [13])	MIC (Penicillium chrysogenum [8]; 25% PDB)	also measured
O=C1C2CC=CCC2C(=O)N1SC(Cl)(Cl)Cl (centres unmarked) [Captan]	0.0 ± 0.0 (6)	0.0 ± 0.0 (6)	0.0 ± 0.0 (6)	3.6 ± 3.9 (9)	2.5 ± 4.0 (9)	2.4 ± 3.8 (9)	0.0 ± 0.0 (9)	0.0 ± 0.0 (9)	0.0 ± 0.0 (9)	3.3 mg/L (≈ 11 µM)	3.1 µg/mL (≈ 10.3 µM)	12.5 µg/mL (≈ 41.6 µM)	16 µg/mL (≈ 53.2 µM)	25 µg/mL (≈ 83.2 µM)	0.39 µg/mL (≈ 1.3 µM)	1.6 µg/mL (≈ 5.32 µM)	0.78 µg/mL (≈ 2.59 µM)	0.78 µg/mL (≈ 2.59 µM)	0.78 µg/mL (≈ 2.59 µM)	0.78 µg/mL (≈ 2.59 µM)	MIC (Fusarium oxysparum ST-33): 2 µg/mL (≈ 6.65 µM); MIC (Aureobasidium pullulans): 0.8 µg/mL (≈ 2.66 µM)
N#Cc1c(Cl)c(Cl)c(Cl)c(C#N)c1Cl [Chlorothalonil, chlorothalonil]	2.2 ± 2.1 (9)	2.0 ± 1.7 (9)	2.0 ± 1.7 (9)	–	–	–	0.0 ± 0.0 (9)	0.0 ± 0.0 (9)	0.0 ± 0.0 (9)	<100 mg/L	0.8 µg/mL (≈ 3.01 µM)	0.8 µg/mL (≈ 3.01 µM)	0.4 µg/mL (≈ 1.5 µM)	0.2 µg/mL (≈ 0.752 µM)	< 0.1 µg/mL	0.78 µg/mL (≈ 2.93 µM)	0.39 µg/mL (≈ 1.47 µM)	< 0.1 µg/mL	0.78 µg/mL (≈ 2.93 µM)	< 0.1 µg/mL	Average defacement rating ± standard deviation (Alternaria alternata [2]; +1000 μg/mL in Olympic Home paint, 7 days): 0.5 ± 1.4 (9); Average defacement rating ± standard deviation (Alternaria alternata [2]; +1000 μg/mL in Olympic Home paint, 14 days): 0.2 ± 0.5 (9); Average defacement rating ± standard deviation (Alternaria alternata [2]; +1000 μg/mL in Olympic Home paint, 21 days): 0.1 ± 0.3 (9); 3 day MIC (Stachybotrys chartarum [5]; 25% PDB): <0.1 µg/mL
OB1OCc2cc(Cl)ccc21 [Compound B8, 5-chloro-1,3-dihydro-2,1-benzoxaborol-1-ol]	7.0 ± 1.9 (9)	6.4 ± 2.6 (9)	–	–	3.4 ± 2.9 (9)	3.0 ± 2.8 (9)	2.3 ± 0.6 (9)	0.0 ± 0.0 (9)	0.0 ± 0.0 (9)	–	0.5 µg/mL (≈ 2.97 µM)	4 µg/mL (≈ 23.8 µM)	0.25 µg/mL (≈ 1.48 µM)	1 µg/mL (≈ 5.94 µM)	0.13 µg/mL (≈ 0.772 µM)	3.1 µg/mL (≈ 18.4 µM)	0.78 µg/mL (≈ 4.63 µM)	0.4 µg/mL (≈ 2.38 µM)	1.56 µg/mL (≈ 9.26 µM)	–	Average defacement rating ± standard deviation (Alternaria alternata [2]; +200 μg/mL in Olympic Home paint, 7 days): 9.3 ± 1.2 (3); Average defacement rating ± standard deviation (Alternaria alternata [2]; +200 μg/mL in Olympic Home paint, 14 days): 7.3 ± 2.9 (3); Average defacement rating ± standard deviation (Alternaria alternata [2]; +200 μg/mL in Olympic Home paint, 21 days): 3.0 ± 0.9 (3); MIC (Fusarium oxysparum ST-33): 0.25 µg/mL (≈ 1.48 µM); MIC (Aureobasidium pullulans): 0.125 µg/mL (≈ 0.742 µM); MIC [9]: 0.1 µg/mL (≈ 0.594 µM)
CCCCNC(=O)OCC#CI [IPBC, 3-Iodo-2-propynylbutylcarbamate]	1.2 ± 1.3 (9)	0.0 ± 0.0 (9)	0.0 ± 0.0 (9)	5.9 ± 2.9 (9)	3.1 ± 2.4 (9)	3.0 ± 2.5 (9)	6.9 ± 3.8 (9)	4.8 ± 4.0 (9)	3.1 ± 3.4 (9)	156 mg/L (≈ 555 µM)	–	–	–	–	–	–	–	–	–	–	3 day MIC (Stachybotrys chartarum [5]; 25% PDB): 0.8 µg/mL; 3 day MIC (Alternaria alternata [6]; 25% PDB): 0.8 µg/mL; 3 day MIC (Penicillium corylophilum; 25% PDB): 0.20 µg/mL; 3 day MIC ([7]; 25% PDB): 0.4 µg/mL; 3 day MIC (Penicillium purpurogenum; [13]): <0.1 µg/mL; 3 day MIC (Penicillium chrysogenum [8]; 25% PDB): 0.2 µg/mL
CCCCCCCCn1sccc1=O [OIT, 2-Octyl-4-isothiazolin-3-one]	4.6 ± 3.2 (9)	3.6 ± 3.7 (9)	3.0 ± 3.7 (9)	0.3 ± 0.5 (6)	0.0 ± 0.0 (6)	0.0 ± 0.0 (6)	3.6 ± 2.8 (9)	3.0 ± 3.7 (9)	2.3 ± 40.0 (9)	–	–	–	–	–	0.1 µg/mL (≈ 0.469 µM)	200 µg/mL (≈ 937 µM)	< 0.1 µg/mL	< 0.1 µg/mL	< 0.1 µg/mL	< 0.1 µg/mL	–
Oc1cc(Cl)ccc1Oc1ccc(Cl)cc1Cl [Triclosan, triclosan]	0.7 ± 1.2 (9)	0.7 ± 1.2 (9)	0.6 ± 1.0 (9)	3.6 ± 3.5 (9)	2.6 ± 3.7 (9)	2.0 ± 2.9 (9)	0.9 ± 2.7 (9)	0.0 ± 0.0 (9)	0.0 ± 0.0 (9)	12,000 mg/L	–	–	–	–	–	–	–	–	–	–	3 day MIC (Stachybotrys chartarum [5]; 25% PDB): <0.1 µg/mL; MIC (Stachybotrys chartarum [5]): < 0.1 µg/mL; MIC (Alternaria alternata [6]): 6.3 µg/mL (≈ 21.8 µM); MIC (Penicillium corylophilum): 3.13 µg/mL (≈ 10.8 µM); MIC [7]: 3.1 µg/mL (≈ 10.7 µM); MIC (Penicillium purpurogenum; Penicillium): 3.13 µg/mL (≈ 10.8 µM); MIC (Penicillium chrysogenum [8]): 6.3 µg/mL (≈ 21.8 µM)

Reference: patent US10160867B2, “Benzoxaborole-containing coating resistant to cellulose-supportable fungus” (THE PENN STATE RESEARCH FOUNDATION, priority 2015, dated 2018)
